Measurements reported in PubChem BioAssay AID330 (DTP/NCI, 2004).
“And” between values parts separate entries of the source, which are not always exact repeats. Equal values may be shown once. Inconclusive results and toxic doses are left out. The calls were made as follows: active = survival T/C of 150% or more; inactive = T/C below 125% in these data.

Test system: P388 leukemia ip, CD2F1 mice, survival T/C
Experiment: NCI In Vivo Anticancer Drug Screen. Data for tumor model P388 Leukemia (intraperitoneal) in CD2F1 (CDF1) mice
Conditions: endpoint: median survival time, higher = longer survival
How it was run: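 Mice carrying the transplanted tumor received test compound or vehicle. Survival was recorded in each group, and the value is the treated-group measurement divided by that of the vehicle-treated control group.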

[1] = dose: 100.0 mg/kg/injection, schedule: Q04DX002 (ip), vehicle: saline
[2] = dose: 12.5 mg/kg/injection, schedule: Q01DX009 (ip), vehicle: saline with Tween-80
[3] = dose: 25.0 mg/kg/injection, schedule: Q01DX009 (ip), vehicle: saline with Tween-80
[4] = dose: 100.0 mg/kg/injection, schedule: Q01DX001 (ip), vehicle: saline with Tween-80
[5] = dose: 200.0 mg/kg/injection, schedule: Q01DX001 (ip), vehicle: saline with Tween-80
[6] = dose: 400.0 mg/kg/injection, schedule: Q01DX001 (ip), vehicle: saline with Tween-80
[7] = dose: 50.0 mg/kg/injection, schedule: Q01DX009 (ip), vehicle: saline with Tween-80
[8] = dose: 100.0 mg/kg/injection, schedule: Q01DX009 (ip), vehicle: saline with Tween-80

Measured: T/C

O=C1C=CC2(C=C1)CCN=C(c1cc3c(cc1Br)OCO3)O2
inactive: dose: 25.0 mg/kg/injection, schedule: Q04DX002 (ip), vehicle: saline 102 % of control | dose: 50.0 mg/kg/injection, schedule: Q04DX002 (ip), vehicle: saline 103 % of control | dose: 100.0 mg/kg/injection, schedule: Q04DX002 (ip), vehicle: saline with Tween-80 108 % of control | [1] 100 % of control

O=C(c1ccc(Cl)cc1)n1c(Cl)c(/C=N\Nc2ccccc2[N+](=O)[O-])c2ccccc21
inactive: dose: 100.0 mg/kg/injection, schedule: Q04DX003 (ip), vehicle: saline with Tween-80 93 % of control | dose: 200.0 mg/kg/injection, schedule: Q04DX003 (ip), vehicle: saline with Tween-80 90 % of control | dose: 400.0 mg/kg/injection, schedule: Q04DX003 (ip), vehicle: saline with Tween-80 92 % of control

CCN(CC)CCCNc1nnnc2ccccc12
inactive: [1] 103 % of control | dose: 200.0 mg/kg/injection, schedule: Q04DX002 (ip), vehicle: saline 90 % of control

Cc1cc(C2=NCC(C)S2)ccc1OCCSCCOc1ccc(C2=NCC(C)S2)cc1C (centres undefined)
inactive: [2] 92 % of control | [3] 92 % of control

Cc1ccc(S(=O)(=O)/C(=C/c2c(-c3ccccc3)c(-c3ccccc3)c3n2CCC3)NC=O)cc1
inactive: [4] 96 % of control | [5] 88 % of control | [6] 86 % of control

Cc1nc2scc(-c3ccccc3)n2c(=O)c1CN1CCOCC1
inactive: dose: 37.5 mg/kg/injection, schedule: Q04DX002 (ip), vehicle: Klucel (hydroxypropylcellulose) (HPC) 106 % of control | dose: 75.0 mg/kg/injection, schedule: Q04DX002 (ip), vehicle: Klucel (hydroxypropylcellulose) (HPC) 97 % of control | dose: 150.0 mg/kg/injection, schedule: Q04DX002 (ip), vehicle: Klucel (hydroxypropylcellulose) (HPC) 103 % of control

C(=Nc1ccncc1)c1c[nH]c2ccccc12
inactive: dose: 3.12 mg/kg/injection, schedule: Q01DX001 (ip), vehicle: Klucel (hydroxypropylcellulose) (HPC) 104 % of control | dose: 6.25 mg/kg/injection, schedule: Q01DX001 (ip), vehicle: Klucel (hydroxypropylcellulose) (HPC) 98 % of control | dose: 12.5 mg/kg/injection, schedule: Q01DX001 (ip), vehicle: Klucel (hydroxypropylcellulose) (HPC) 101 % of control and 104 % of control

O=C1OC(=O)C2C3c4ccccc4C(c4ccccc43)C12 (centres undefined)
inactive: dose: 50.0 mg/kg/injection, schedule: Q01DX005 (ip), vehicle: saline with Tween-80 115 % of control and 117 % of control | dose: 100.0 mg/kg/injection, schedule: Q01DX005 (ip), vehicle: saline with Tween-80 110 % of control and 121 % of control | dose: 200.0 mg/kg/injection, schedule: Q01DX005 (ip), vehicle: saline with Tween-80 120 % of control and 122 % of control | dose: 400.0 mg/kg/injection, schedule: Q01DX005 (ip), vehicle: saline with Tween-80 121 % of control

Nc1ncnc(Nc2ccc(S(N)(=O)=O)cc2)n1
inactive: dose: 5.0 mg/kg/injection, schedule: Q01DX009 (ip), vehicle: Klucel (hydroxypropylcellulose) (HPC) 100 % of control | dose: 10.0 mg/kg/injection, schedule: Q01DX009 (ip), vehicle: Klucel (hydroxypropylcellulose) (HPC) 97 % of control | dose: 20.0 mg/kg/injection, schedule: Q01DX009 (ip), vehicle: Klucel (hydroxypropylcellulose) (HPC) 100 % of control

Cc1c2c(nc3ccccc13)-c1ccccc1C(C)(C)C2O (centres undefined)
inactive: [4] 99 % of control | [5] 106 % of control | [6] 106 % of control

CC(=Nc1ccccc1)Nc1ccccc1.[Cu+2]
inactive: [2] 109 % of control | [3] 105 % of control | [7] 105 % of control

CCOC(=O)C1C2CCCCC21OC (centres undefined)
inactive: dose: 60.0 mg/kg/injection, schedule: Q01DX005 (ip), vehicle: saline with Tween-80 106 % of control | dose: 120.0 mg/kg/injection, schedule: Q01DX005 (ip), vehicle: saline with Tween-80 107 % of control | dose: 240.0 mg/kg/injection, schedule: Q01DX005 (ip), vehicle: saline with Tween-80 110 % of control

COc1cc2c(cc1OC)C1Cc3ccc(OC)c(OC)c3CN1CC2 (centres undefined)
inactive: dose: 50.0 mg/kg/injection, schedule: Q01DX009 (ip), vehicle: saline 104 % of control | dose: 60.0 mg/kg/injection, schedule: Q01DX005 (ip), vehicle: Klucel (hydroxypropylcellulose) (HPC) 100 % of control | dose: 100.0 mg/kg/injection, schedule: Q01DX009 (ip), vehicle: saline 101 % of control | dose: 120.0 mg/kg/injection, schedule: Q01DX005 (ip), vehicle: Klucel (hydroxypropylcellulose) (HPC) 109 % of control | dose: 200.0 mg/kg/injection, schedule: Q01DX009 (ip), vehicle: saline 99 % of control | dose: 240.0 mg/kg/injection, schedule: Q01DX005 (ip), vehicle: Klucel (hydroxypropylcellulose) (HPC) 108 % of control

CC(=O)O[C@H]1CC[C@]2(C)C34OC3C[C@]3(C)[C@@H](C(C)=O)CC[C@H]3[C@]43C=C[C@@]2(C1)C1C(=O)OC(=O)C13 (some centres undefined)
inactive: dose: 50.0 mg/kg/injection, schedule: Q01DX005 (ip), vehicle: Klucel (hydroxypropylcellulose) (HPC) 112 % of control | dose: 100.0 mg/kg/injection, schedule: Q01DX005 (ip), vehicle: Klucel (hydroxypropylcellulose) (HPC) 106 % of control

C1CCNCC1.CC(=O)[C-](C(C)=O)c1ccccc1.CC(=O)[C-](C(C)=O)c1ccccc1.CC(=O)[C-](C(C)=O)c1ccccc1.CC(=O)[C-](C(C)=O)c1ccccc1.[Eu+3]
inactive: dose: 100.0 mg/kg/injection, schedule: Q04DX002 (ip), vehicle: Klucel (hydroxypropylcellulose) (HPC) 86 % of control | dose: 400.0 mg/kg/injection, schedule: Q04DX002 (ip), vehicle: Klucel (hydroxypropylcellulose) (HPC) 97 % of control

COc1cc2ccc3c(c2cc1OC)C=[N+](C)CC3
inactive: dose: 44.0 mg/kg/injection, schedule: Q01DX009 (ip), vehicle: saline with Tween-80 100 % of control | dose: 66.0 mg/kg/injection, schedule: Q01DX009 (ip), vehicle: saline with Tween-80 109 % of control | [8] 109 % of control | dose: 150.0 mg/kg/injection, schedule: Q01DX009 (ip), vehicle: saline with Tween-80 113 % of control

CC(=O)Nc1cscc1NC(C)=O
inactive: [3] 101 % of control | [7] 94 % of control | [8] 100 % of control | dose: 200.0 mg/kg/injection, schedule: Q01DX009 (ip), vehicle: saline with Tween-80 101 % of control
